Assay results from patent publication US7208512B2, “Benzodifuranimidazoline and benzofuranimidazoline derivatives and their use for the treatment of glaucoma” (Alcon, Inc., priority 2001, dated 2007).

Tests used:
5-HT2 receptor [1] = molecular target: T1, 5-HT2 receptor (Rattus norvegicus, UniProt P14842); test: 5-HT2 receptor binding assay ([125I]DOI competition, rat cerebral cortex homogenates)
Method: Aliquots of post mortem rat cerebral cortex homogenates (400 μl) dispersed in 50 mM TrisHCl buffer (pH 7.4) are incubated with [^125I]DOI (80 pM final) in the absence or presence of methiothepin (10 μM final) to define total and non-specific binding, respectively, in a total volume of 0.5 ml. The assay mixture is incubated for 1 hour at 23° C. in polypropylene tubes and the assays terminated by rapid vacuum filtration over Whatman GF/B glass fiber filters previously soaked in 0.3% polyethyleneimine using ice-cold buffer. Test compounds (at different concentrations) are substituted for methiothepin. Filter-bound radioactivity is determined by scintillation spectrometry on a beta counter. The data are analyzed using a non-linear, iterative curve-fitting computer program (Bowen et al. 1995) to determine the compound affinity parameter.

5-HT2 receptor [2] = molecular target: T1, 5-HT2 receptor; test: 5-HT2 functional assay: phosphoinositide (PI) turnover in A7r5 rat vascular smooth muscle cells; assay type: cell-based; parameters: A7r5 rat vascular smooth muscle cells; endogenous in cells; host or cells: A7r5 rat vascular smooth muscle cells; conditions: [3H]-IPs production in A7r5 cells
Method: The relative agonist activity of serotonergic compounds at the 5-HT2 receptor can be determined in vitro using the ability of the compounds to stimulate the production of [^3H]inositol phosphates in [^3H]myo-inositol-labeled A7r5 rat vascular smooth muscle cells by their ability to activate the enzyme phospholipase C. These cells are grown in culture plates, maintained in a humidified atmosphere of 5% CO2 and 95% air and fed semi-weekly with Dulbecco's modified Eagle medium (DMEM) containing 4.5 g/l glucose and supplemented with 2 mM glutamine, 10 μg/ml gentamicin, and 10% fetal bovine serum. […] Confluent cells are exposed for 24–30 hrs to 1.5 μCi [^3H]-myo-inositol (18.3 Ci/mmol) in 0.5 ml of serum-free medium. Cells are then rinsed once with DMEM/F-12 containing 10 mM LiCl prior to incubation with the test agent (or solvent as the control) in 1.0 ml of the same medium for 1 hr at 37° C., after which the medium is aspirated and 1 ml of cold 0.1 M formic acid added to stop the reaction. […] The eluate (4 ml) is collected, mixed with 15 ml scintillation fluid, and the total [^3H]-IPs determined by scintillation counting on a beta-counter. Concentration-response data are analyzed by the sigmoidal fit function of the Origin Scientific Graphics software (Microcal Software, Northampton, Mass.) to determine agonist potency (EC50 value) and efficacy (Emax). […]

T1 sequence (P14842 whole entry): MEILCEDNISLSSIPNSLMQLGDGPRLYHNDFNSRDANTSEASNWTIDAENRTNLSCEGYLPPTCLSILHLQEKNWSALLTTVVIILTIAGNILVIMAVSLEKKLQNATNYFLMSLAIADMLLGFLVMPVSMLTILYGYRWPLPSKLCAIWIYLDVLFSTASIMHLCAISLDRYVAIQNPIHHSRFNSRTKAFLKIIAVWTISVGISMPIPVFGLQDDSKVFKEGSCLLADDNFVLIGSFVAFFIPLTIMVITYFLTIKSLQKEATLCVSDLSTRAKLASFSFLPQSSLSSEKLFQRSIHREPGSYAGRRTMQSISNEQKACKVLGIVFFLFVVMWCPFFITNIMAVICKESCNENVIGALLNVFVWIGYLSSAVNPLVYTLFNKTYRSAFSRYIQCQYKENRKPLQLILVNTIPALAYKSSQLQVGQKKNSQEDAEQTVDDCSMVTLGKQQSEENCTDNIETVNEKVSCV

**Q.** `COc1cc(C[C@@H](C)N)c(OC)cc1I` [(R)-DOI, reference compound] was tested. Which IC50 (5-HT2 receptor [1]) did it give?
**A.** The IC50 was 0.46 nM.

**Q.** What about the EC50 (5-HT2 receptor [2]) of the same compound?
**A.** The EC50 was 277 nM.
